Measured values taken from patent publication US10450335B2, “Antiviral oxime phosphoramide compounds” (Merck Sharp & Dohme Corp., priority 2015, dated 2019).
Where two headings read alike, the source gives them in different places.

Tested on: HIV-1 (H9/IIIB strain)
Experiment: Viking assay: antiviral potency in a multiple round HIV-1 infection assay in MT4-GFP cells
Format: cell-based
Settings: MT4-GFP cells infected with HIV-1 H9/IIIB, inhibition of reproductive ratio R0
Description: Assessing Antiviral Potency in a Multiple Round HIV-1 Infection Assay (Viking Assay)
The antiviral activity of the tenofovir prodrugs of the Examples herein was assessed in an assay that measures the rate of replication of HIV in cell culture, termed the Viking assay (VIral KINetics in Green cells) and performed as follows. HIV-1 replication was monitored using MT4-gag-GFP clone D3 (hereafter designated MT4-GFP), which are MT-4 cells modified to harbor a GFP reporter gene, the expression of which is dependent on the HIV-1 expressed proteins tat and rev. Productive infection of an MT4-GFP cell with HIV-1 results in GFP expression approximately 24 h post-infection. MT4-GFP cells were maintained at 37° C./5% CO2/90% relative humidity in RPMI 1640 supplemented with 10% fetal bovine serum, 100 U/ml penicillin/streptomycin, and 400 μg/ml G418 to maintain the reporter gene. For infections, MT4-GFP cells were placed in the same medium lacking G418 and infected overnight with HIV-1 (H9/IIIB strain) virus at an approximate multiplicity of infection of 0.01 in the same incubation conditions. Cells were then washed and re-suspended in either RPMI 1640 supplemented with 10% or 50% normal human serum (NHS) at 1.6×10^5 cells/mL (10% NHS or 50% NHS, respectively). Compound plates were prepared by dispensing compounds dissolved in DMSO into wells of 384 well poly-D-lysine-coated plates (0.2 μl/well) using an ECHO acoustic dispenser. Each compound was tested in a 10-point serial 3-fold dilution (typical final concentrations: 8.4 μM-0.42 nM). Controls included no inhibitor (DMSO only) and a combination of three antiviral agents (efavirenz, indinavir, an in-house integrase strand transfer inhibitor at final concentrations of 4 μM each). Cells were added (50 μL/well) to compound plates and the infected cells were maintained at 37° C./5% CO2/90% relative humidity.
Infected cells were quantified at two time points, ˜48 h and ˜72 h post-infection, by counting the number of green cells in each well using an Acumen eX3 scanner. The increase in the number of green cells over ˜24 h period gives the reproductive ratio, R0, which is typically 5-15 and has been shown experimentally to be in logarithmic phase (data not shown). Inhibition of R0 is calculated for each well, and IC50s determined by non-linear 4-parameter curve fitting.

[1] = Human immunodeficiency virus 1, IIIB, 10% normal human serum, read-out: Viking, IC50 (10% NHS)
[2] = Human immunodeficiency virus 1, IIIB, 50% normal human serum, read-out: Viking, IC50 (50% NHS)

Row | Structure (SMILES) | IC50 [1] [nM] | IC50 [2] [nM] | IC50 (10% normal human serum, read-out: Viking, IC50 (10% NHS)) [nM] | IC50 (50% normal human serum, read-out: Viking, IC50 (50% NHS)) [nM]
1 | CCC(CC)=NOP(=O)(CO[C@H](C)Cn1cnc2c(N)ncnc21)N[C@@H](C)C(=O)OC(C)C (stereo partly drawn) [Example 7, isopropyl (((((R)-1-(6-amino-9H-purin-9-yl)propan-2-yl)oxy)methyl)((pentan-3-ylideneamino)oxy)phosphoryl)-L-alaninate] | 28.2 | 84.7 | – | –
2 | CC(C)=NOP(=O)(CO[C@H](C)Cn1cnc2c(N)ncnc21)N[C@@H](C)C(=O)OCc1ccccc1 (stereo partly drawn) [Example 5, benzyl (((R)-(((R)-1-(6-amino-9H-purin-9-yl)propan-2-yl)oxy)methyl)((propan-2-ylideneamino)oxy)phosphoryl)-L-alaninate; and benzyl (((S)-(((R)-1-(6-amino-9H-purin-9-yl)propan-2-yl)oxy)methyl)((propan-2-ylideneamino)oxy)phosphoryl)-L-alaninate] | 21.3 | 115 | 15.2 | 67
3 | CC(C)OC(=O)[C@H](C)NP(=O)(CO[C@H](C)Cn1cnc2c(N)ncnc21)ON=C(C1CCCC1)C1CCCC1 (stereo partly drawn) [Example 6, isopropyl (((((R)-1-(6-amino-9H-purin-9-yl)propan-2-yl)oxy)methyl)(((dicyclopentylmethyl-ene)amino)oxy)phosphoryl)-L-alaninate] | 24.3 | 51.3 | – | –
4 | C/C(=N\OP(=O)(CO[C@H](C)Cn1cnc2c(N)ncnc21)N[C@@H](C)C(=O)OC(C)C)c1ccncc1 (stereo partly drawn) [Example 16, isopropyl (((R)-(((R)-1-(6-amino-9H-purin-9-yl)propan-2-yl)oxy)methyl)((((E)-1-(pyridin-4-yl)ethylidene)amino)oxy)phosphoryl)-L-alaninate and isopropyl; and (((S)-(((R)-1-(6-amino-9H-purin-9-yl)propan-2-yl)oxy)methyl)((((E)-1-(pyridin-4-yl)ethylidene)amino)oxy)phosphoryl)-L-alaninate] | 780 | 1140 | – | –
5 | CC(C)OC(=O)[C@H](C)NP(=O)(CO[C@H](C)Cn1cnc2c(N)ncnc21)ON=C(c1ccccc1)c1ccccc1 (stereo partly drawn) [Example 14, isopropyl (((((R)-1-(6-amino-9H-purin-9-yl)propan-2-yl)oxy)methyl)(((diphenylmethylene)amino)oxy)phosphoryl)-L-alaninate] | 18.6 | 169 | – | –
6 | CC(C)OC(=O)[C@H](C)NP(=O)(CO[C@H](C)Cn1cnc2c(N)ncnc21)ON=C1CCOCC1 (stereo partly drawn) [Example 9, isopropyl (((((R)-1-(6-amino-9H-purin-9-yl)propan-2-yl)oxy)methyl)(((tetrahydro-4H-pyran-4-ylidene)amino)oxy)phosphoryl)-L-alaninate] | 165 | 360 | – | –
7 | CC(C)OC(=O)[C@H](C)NP(=O)(CO[C@H](C)Cn1cnc2c(N)ncnc21)ON=C1CCCCC1 (stereo partly drawn) [Example 8, isopropyl (((((R)-1-(6-amino-9H-purin-9-yl)propan-2-yl)oxy)methyl)((cyclohexylideneamino)oxy)phosphoryl)-L-alaninate] | 67.7 | 92.1 | – | –
8 | CC(C)OC(=O)[C@H](C)NP(=O)(CO[C@H](C)Cn1cnc2c(N)ncnc21)ON=C1CCN(Cc2ccccc2)CC1 (stereo partly drawn) [Example 11, isopropyl (((((R)-1-(6-amino-9H-purin-9-yl)propan-2-yl)oxy)methyl)(((1-benzylpiperidin-4-ylidene)amino)oxy)phosphoryl)-L-alaninate] | 14.8 | 51.7 | – | –
